These results are taken from PMC5703498, “Plant-type phytoene desaturase: Functional evaluation of structural implications” (PLoS ONE, 2017).

Test [1] concerns the target T1, Phytoene desaturase (OsPDS-His6) (Oryza sativa, UniProt A2XDA1).
T1 construct: gene PDS1
The test is described as follows: liposome-based desaturase assay with purified enzyme, competitive inhibition fit against DPQ, HPLC. The format is biochemical.

Test [2] concerns the target T2, Phytoene desaturase (OsPDS-His6) (Oryza sativa, UniProt A2XDA1, R300S).
T2 construct: gene PDS1
The test is described as follows: liposome-based desaturase assay with purified mutant, DPQ x NFZ matrix, competitive inhibition fit. Type of test: biochemical.

T2 sequence (A2XDA1 88-578 R300S): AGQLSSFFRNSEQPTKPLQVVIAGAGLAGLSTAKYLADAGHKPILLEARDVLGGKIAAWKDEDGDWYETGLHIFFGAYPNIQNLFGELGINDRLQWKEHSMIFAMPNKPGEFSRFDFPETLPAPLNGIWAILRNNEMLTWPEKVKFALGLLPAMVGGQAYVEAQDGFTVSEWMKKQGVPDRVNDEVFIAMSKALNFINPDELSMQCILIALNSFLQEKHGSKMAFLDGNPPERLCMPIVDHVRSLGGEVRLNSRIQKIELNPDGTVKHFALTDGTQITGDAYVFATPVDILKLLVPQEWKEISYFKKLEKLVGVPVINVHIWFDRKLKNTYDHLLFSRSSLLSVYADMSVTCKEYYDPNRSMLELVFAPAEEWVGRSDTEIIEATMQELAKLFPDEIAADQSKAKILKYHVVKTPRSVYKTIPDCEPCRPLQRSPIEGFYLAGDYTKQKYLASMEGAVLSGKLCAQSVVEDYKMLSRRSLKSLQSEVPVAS
T1 sequence (A2XDA1 88-578): as the sequence (A2XDA1 88-578 R300S) above, with S213R counted along it

Broadly, the Ki is a dissociation constant, usually derived from enzyme kinetics or from competition with a known ligand. Low values mean a stronger hold on the target, high ones a looser hold on the target. Consider `CNc1cnn(-c2cccc(C(F)(F)F)c2)c(=O)c1Cl` [NFZ, norflurazon], for which the Ki in test [1] is 230 ± 30 µM; in test [2], 1110 ± 360 µM.
